Assay results: patent publication US6555375B1, “Methods for somatic embryo formation and plant regeneration of Beta vulgaris” (priority 2000, dated 2003)

Tests used:
[1] = system: sugar beet seedling tissues (hypocotyls, cotyledons); assay: Callus induction from sugar beet seedling explants on MS medium with cytokinin; type: cell-based, Beta vulgaris
Method: Seeds from three sugar beet lines ACH199 (triploid), ACH31 (triploid) and ACH203 (diploid) were obtained from Crystal and Maribo Beet Seed, Moorehead, Minn. USA. To remove seed covers, Beta vulgaris seeds were soaked in the tap water overnight and then washed under water flow. Seeds were sterilized by sequential treatment with 70% (v/v) ethanol (1 min.), 0.1% (w/v) mercuric chloride (10 min.) and 10% (v/v) household laundry bleach (20 min.) followed by four washes with sterile distilled water. Seeds were then dried on sterile filter paper. All steps were performed in a laminar flow hood.
A series of media which included additional supplements were used for callus induction, embryo proliferation and shoot formation. Phytohormones (BAP, TDZ, NAA, IAA, 2,4-D) were added to the media before autoclaving (120° C. for 20 min.). The basal medium for callus induction and embryogenesis is MS medium comprising MS basal salts, 3% sucrose, 100 mg/L myo-inositol, 0.5 mg/L nicotinic acid, 0.5 mg/L pyridoxine-HCl, 1 mg/L thiamine-HCl and 0.8% (w/v) Difco agar. The basal medium for proliferation of repetitive embryos is MSE (MS basal salts, 100 mg/L myo-inositol, 0.5 mg/L nicotinic acid, 0.5 mg/L pyridoxine-HCl, 1 mg/L thiamine-HCl).
Petri dishes (100 mm×25 mm) containing 25 mL of medium were used for all experiments. Seeds were placed on MS medium, containing either BAP 2 mg/L or TDZ 1 mg/L; plates were sealed and placed in the dark place at 21° C. Cotyledons and hypocotyls (FIG. 1A) were excised from two-week-old seedlings, cut into several pieces, incised and placed on callus induction medium (MS medium supplemented with either 2 mg/L of BAP or 1 mg/l of TDZ). Plates were incubated in the dark at 21° C. Four weeks later, when explants were necrotic and dark brown, colonies of white friable callus appeared on the explant surface (FIG. 1B). Most of the callus formed on hypocotyls. Only a few colonies were found on cotyledons.

[2] = system: friable callus of sugar beet; assay: Shoot/plant regeneration from friable callus; type: cell-based, Beta vulgaris
Method: For regeneration of embryos, friable callus was transferred to callus regeneration medium (MS medium supplemented with either 1 mg/L of BAP or 1 mg/L of TDZ). The cultures were incubated at 25° C. under a photoperiod of 16 hours of light of cool, white light at an intensity of 30 μmol m^−2s^−1 followed by a 8 hours of darkness. Callus began to grow vigorously, and by the end of the second week, it was possible to distinguish several callus types as well as small embryos (FIG. 1C). Since every seedling was treated as a separate line, quantitative analysis can be applied to the results of the experiments.
All explants of one type from the same line (i.e. only hypocotyls) were able to produce callus, if any did. At the same time, there were only a few cases where callus formed from both cotyledons and hypocotyls of the same seedling (twice in ACH31 and four times in ACH203).

[3] = system: sugar beet somatic embryos; assay: Germination of primary somatic embryos on MS medium containing cytokinin; type: cell-based, Beta vulgaris
Method: The embryos germinated quickly when transferred to fresh medium either supplemented with phytohormones or not. […] These embedded tissues were manually isolated, separated and transferred into liquid medium (MS medium+BAP 0.2 mg/L). The cultures were maintained at constant agitation (100 rpm) in the dark with biweekly changes of the medium. The white embryogenic tissue masses expanded in two weeks and snow-white fresh outgrowths formed on the surface of older tissues (FIG. 2B). Clumps of white embryogenic tissue masses were divided and transferred to fresh medium for further proliferation. A couple of such passages was enough to generate a large number of white clumps. Part of these tissues was used for the optimization of culture medium.

[4] = system: embryogenic tissue masses of sugar beet; assay: Repetitive embryogenic culture: optimization of proliferation medium; type: cell-based, Beta vulgaris; details: for Effect of media on repetitive embryogenic culture (description) / white embryos or white clumps, share of tissues: IV. MSE, sucrose 6%, glycine 2 mg/L, pH 5.7
Method: These embedded tissues were manually isolated, separated and transferred into liquid medium (MS medium+BAP 0.2 mg/L). The cultures were maintained at constant agitation (100 rpm) in the dark with biweekly changes of the medium. […] Clumps of white embryogenic tissue masses were divided and transferred to fresh medium for further proliferation. […] Part of these tissues was used for the optimization of culture medium.
The optimization of proliferation medium was conducted through several stages. Each stage lasted for two weeks.

[5] = system: secondary somatic embryos of sugar beet; assay: Regeneration of secondary somatic embryos, adventitious shoot formation; type: cell-based, Beta vulgaris
Source text: Somatic embryos produced as described in Example 3 started to germinate as soon as they were transferred to a medium comprising MS basal salts, 3% sucrose and either BAP or TDZ under light. Regeneration began with green or red coloration of an embryo accompanied by formation of primary leaves and roots (FIG. 2C). Since the regeneration medium contained cytokinins, the primary roots were reduced while the shoots developed (FIG. 2D).
To select the best medium for embryo germination, a series of concentrations of BAP and TDZ was tested. The phenotypic effect of applied phytohormones was estimated after three weeks (FIG. 3).

[6] = system: callus; details: Nielson et al. (1995), Roussy et al. (1996); cited from earlier work

O=C(Nc1ccccc1)Nc1cnns1 [TDZ, thidiazuron]
production of friable callus and shoots, and plants therefrom: callus induction medium comprising TDZ versus BAP [1]: superior
increase of friable callus formation from hypocotyls, TDZ compared with BAP ([1]; ACH31): two-fold
%A: number of lines producing callus/total number of lines × 100 ([1]; Cultivar ACH31, Cotyledons): 0%
# of lines produced callus ([1]; Cultivar ACH31, Cotyledons, MS + BAP 2 mg/L or TDZ 1 mg/L): 0
%A: number of lines producing callus/total number of lines × 100 ([1]; Cultivar ACH31, Hypocotyls, MS + BAP 2 mg/L or TDZ 1 mg/L): 45%
# of lines produced callus ([1]; Cultivar ACH31, Hypocotyls, MS + BAP 2 mg/L or TDZ 1 mg/L, dark 21° C.): 50
%A: number of lines producing callus/total number of lines × 100 ([1]; Cultivar ACH203, Cotyledons): 0%
# of lines produced callus ([1]; Cultivar ACH203, Cotyledons, MS + BAP 2 mg/L or TDZ 1 mg/L): 0
%A: number of lines producing callus/total number of lines × 100 ([1]; Cultivar ACH203, Hypocotyls): 43%
# of lines produced callus ([1]; Cultivar ACH203, Hypocotyls, MS + BAP 2 mg/L or TDZ 1 mg/L): 100
callus initiation from cotyledons, TDZ compared with BAP ([1]; cotyledons): no TDZ-related improvements
callus formation and plant regeneration, TDZ compared with BAP ([1]; hypocotyls of cultivar ACH203): provided similar results
rate of callus formation from hypocotyls and plant regeneration from such callus, TDZ compared with BAP ([1]; two out of three cultivars tested): dramatically increased
increase of plant regeneration from these calli, TDZ compared with BAP ([2]; ACH31, hypocotyl callus): nine-fold
# of lines produced shoots ([2]; Cultivar ACH31, Cotyledons): 0
%B: number of lines producing callus and regenerating/total number of lines × 100 ([2]; Cultivar ACH31, Cotyledons): 0%
%B: number of lines producing callus and regenerating/total number of lines × 100 ([2]; Cultivar ACH31, Hypocotyls): 9%
# of lines produced shoots ([2]; Cultivar ACH31, Hypocotyls, regeneration medium MS + 1 mg/L BAP or TDZ): 10
# of lines produced shoots ([2]; Cultivar ACH203, Cotyledons): 0
%B: number of lines producing callus and regenerating/total number of lines × 100 ([2]; Cultivar ACH203, Cotyledons): 0%
# of lines produced shoots ([2]; Cultivar ACH203, Hypocotyls): 40
%B: number of lines producing callus and regenerating/total number of lines × 100 ([2]; Cultivar ACH203, Hypocotyls): 17%
phenotype of embryos transferred to MS medium containing BAP or TDZ [3]: formed multiple shoots but also retained white embryogenic tissues
necrosis [4]: did not cause necrosis
tissue proliferation and anthocyanin production [4]: very quick proliferation of tissue and intensified production of anthocyanins
Effect of media on repetitive embryogenic culture (description) ([4]; phytohormone 0.05 mg/L): Vigorously expanded dark red culture
white embryos or white clumps, share of tissues ([4]; phytohormone 0.05 mg/L): 20%
Effect of media on repetitive embryogenic culture (description) ([4]; phytohormone 0.1 mg/L): Vigorously expanded dark red culture
white embryos or white clumps, share of tissues ([4]; phytohormone 0.1 mg/L): 20%
Effect of media on repetitive embryogenic culture (description) ([4]; phytohormone 1 mg/L): Vigorously expanded dark red culture, no white embryos
effect on embryogenic tissues during medium optimization ([4]; indicated by vigorous growth, red coloration, absence of embryogenic tissue masses): induced the regeneration of embryos
adventitious shoot formation ([5]; TDZ at 0.03 mg/L, concentrations tested 0.03, 0.1, 0.3, 1 and 3 mg/l, after three weeks): most effective
inducing the formation of adventitious shoots on Beta vulgaris embryos ([5]; compared with BAP): superior to BAP
regeneration, particularly shoot development on Beta vulgaris embryos ([5]; compared with BAP): superior to BAP
vitrification of tissues ([5]; concentrations higher than 0.03 mg/L): caused vitrification of tissues
vitrification of tissues and adventitious shoots ([5]; low concentrations): did not cause vitrification of tissues while producing more adventitious shoots
callus-inducing effectiveness [6]: more effective callus-inducing agent than BAP
